This note sets out measurements from US20060236430A1, “Methods and compositions for producing male sterile plants” (priority 2003, published 2006).

Entries after “also recorded” stand apart in the source; their conditions may differ.

Data set [1] deals with T1, hydroxyjasmonic acid sulfotransferase encoded by the AtST2a gene (Arabidopsis thaliana, UniProt Q8L5A7).
T1 sequence (Q8L5A7 1-359): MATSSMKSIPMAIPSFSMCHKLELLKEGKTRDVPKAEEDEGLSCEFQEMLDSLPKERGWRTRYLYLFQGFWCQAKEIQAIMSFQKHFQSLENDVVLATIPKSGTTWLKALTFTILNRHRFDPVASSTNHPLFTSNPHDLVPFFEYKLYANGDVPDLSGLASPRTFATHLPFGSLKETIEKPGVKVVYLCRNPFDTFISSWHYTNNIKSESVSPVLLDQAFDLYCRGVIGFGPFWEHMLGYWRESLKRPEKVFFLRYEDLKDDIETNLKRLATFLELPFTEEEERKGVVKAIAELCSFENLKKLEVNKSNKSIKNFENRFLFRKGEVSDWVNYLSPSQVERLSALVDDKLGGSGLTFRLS
Description: Substrate specificity and kinetics of the AtST2a hydroxyjasmonic acid sulfotransferase. The conditions noted are these: structurally related compounds. In kind it is biochemical. The source says: (§1) SEQ ID NO 1 (FIG. 6; GenBank®: accession number NM_120783) corresponds to the gene AtST2a in Arabidopsis thaliana. SEQ ID NO 3 (FIG. 7) is an amino acid sequence deduced from SEQ ID NO 1. This amino acid sequence is of public domain and can be retrieved from GenBank®, accession number NM_120783. The AtST2a gene from Arabidopsis thaliana encodes a sulfotransferase that sulfonates 12-OHJA and 11-OHJA with high specificity.

For data set [2], the system named is A. thaliana opr3 mutant deficient in JA biosynthesis. Description: Restoring the male sterile phenotype of the opr3 mutant by exogenous application to the inflorescence. The data set is classed as in vivo, Arabidopsis thaliana. As to conditions: data not shown.
Data set [3] concerns transgenic Nicotiana tabacum plants (line 7) expressing AtST2a. Description: Normalization experiment: restoring normal anther development in male sterile transgenic tobacco expressing AtST2a. The conditions noted are these: for restoration of the male sterile phenotype by exogenous application: transgenic tobacco overexpressing AtST2a, concentration not given. The data set is classed as in vivo. The method, then:
The apex of T2 plants of line 7 was soaked daily in a solution containing either: 0.05% Tween20 in water (control), 0.05% Tween20 in water containing 50 μM MeJA or 0.05% Tween20 in water containing 100 μM 12-OHJA. The treatments were started approximately 7 days before the appearance of the first flower buds and lasted a total of 14 days. A minimum of 5 plants for each treatment were analyzed in this study.
In order to restore the phenotype, the apex of transgenic plants were soaked daily for 2 minutes in a solution containing 100 μM 12-OHJA dissolved in aqueous 0.05% TWEEN20. The application was started approximately 7 days prior to the appearance of the first flower bud and was continued for 7 days after the first flower appeared.

Substrate in data set [4]: CC(O)C=CCC1C(=O)CCC1CC(=O)O
Briefly: Substrate specificity and kinetics of the AtST2a hydroxyjasmonic acid sulfotransferase. The data set is classed as biochemical, Arabidopsis thaliana. The conditions noted are these: other: as substrate of the sulfotransferase; pH 7.5.
Source text: as §1

Substrate in data set [5]: O=C(O)CC1CCC(=O)C1CC=CCCO
The data set is described as above. The data set is classed as biochemical, Arabidopsis thaliana. As to conditions: other: as substrate of the sulfotransferase; pH 7.5.
Source text: as §1

On to `CCCCC/C=C\C/C=C\C/C=C\C/C=C\CCCCO` [arachidonyl alcohol], for which, in data set [1], the “acceptance as substrate by the enzyme” value was “did not accept”.
In the case of `O=C(O)CC1CCC(=O)C1CC=CCCO` (stereo not drawn) [12-OHJA, 3-Oxo-2-(5-hydroxy-2-pentenyl)-cyclopentane-1-acetic acid], the “restoration of the male sterile phenotype” value in data set [2] is “restore the male sterile phenotype”. For the same molecule, in data set [3] (100 μM in aqueous 0.05% TWEEN20, apex of line 7 soaked daily for 2 minutes, 14 days), the “restoration of normal anther development” value was “restoration of the mutant phenotype; also recorded: restored normal anther development”. In addition, in data set [3] (apex of transgenic plants treated for 14 days (FIG. 5)), the “production of viable pollen” value is “production of viable pollen”. In addition, the “restoration of the male sterile phenotype by exogenous application” value in data set [3] is “could be restored”.
On to `CC/C=C\C[C@H]1C(=O)CC[C@@H]1CC(=O)O` [JA, jasmonic acid], for which the “restoration of the male sterile phenotype by exogenous application” value in data set [3] is reported as “could be restored”.
Take `CC/C=C/CC1C(O)CCC1CC(=O)O` (stereo not drawn) [cucurbic acid]: the “acceptance as substrate by the enzyme” value in data set [1] was “did not accept”.

B1: hydroxyjasmonic acid sulfotransferase encoded by the AtST2a gene (Arabidopsis thaliana) (protein)
chain: T1 sequence (Q8L5A7 1-359)
For B1, the Km in data set [4] was found to be 60 µM; in data set [5], 11 µM.

The term Km denotes the substrate concentration at which the rate is half of its maximum.
